Laboratory results: US20250353821A1, “BENZENE SULFONAMIDE THIAZOLE COMPOUNDS AND THEIR USE FOR THE TREATMENT OF CANCERS” (INSERM (INSTITUT NATIONAL DE LA SANTÉ ET DE LA RECHERCHE …, priority 2021, published 2025)
In brackets after ≈: the same amount, converted by molar mass.

How the values were obtained:
A375 melanoma cells [1] = test: IC50 determination in A375 cells, blue trypan exclusion; assay type: cell-based, human; conditions: Homo sapiens, A-375; A375, serum free, 24 h
Aqueous solubility = assay type: physicochemical; conditions: aqueous medium (not further specified), read-out: Solublity
A375 melanoma cells [2] = test: Cell viability by cell counting, trypan blue exclusion method; assay type: cell-based; conditions: Homo sapiens, A-375, 48 h, percentage of cells alive relative to negative control DMSO (100%)
[3] = system: CHOP in A375 melanoma cells; test: CHOP induction (ER stress marker), western blot, A375; assay type: cell-based, human; design: key: −: No induction of CHOP; +: Induction of CHOP; ++: Significant induction of CHOP; +++: Strong induction of CHOP; conditions: A375 (serum free), 24 h
CHOP in Kyse 70 cells = test: CHOP induction (ER stress marker), western blot, Kyse70; assay type: cell-based, human; design: key: −: No induction of CHOP; +: Induction of CHOP; ++: Significant induction of CHOP; +++: Strong induction of CHOP; conditions: Kyse70 (serum free), 24 h
CHOP in SH10TC cells = test: CHOP induction (ER stress marker), western blot, SH10TC; assay type: cell-based, human; design: key: −: No induction of CHOP; +: Induction of CHOP; ++: Significant induction of CHOP; +++: Strong induction of CHOP; conditions: SH10TC (serum free), 24 or 48 h
CHOP in KATO III cells = test: CHOP induction (ER stress marker), western blot, Kato III; assay type: cell-based, human; design: key: −: No induction of CHOP; +: Induction of CHOP; ++: Significant induction of CHOP; +++: Strong induction of CHOP; conditions: Kato III (1% SVF), 24 or 48 h

| SMILES | solubility (Aqueous solubility) | viability at 1 µM (A375 melanoma cells [2]) | viability at 5 µM (A375 melanoma cells [2]) | viability at 10 µM (A375 melanoma cells [2]) | further results |
| --- | --- | --- | --- | --- | --- |
| CCCCCc1ccc(S(=O)(=O)Nc2cccc(-c3csc(N4CCN(C)CC4)n3)c2)cc1 [PB707, N-(3-(2-(4-methylpiperazin-1-yl)thiazol-4-yl)phenyl)-4-pentylbenzenesulfonamide] |  |  |  |  | IC50 (A375 melanoma cells [1]): 2.5 µM |
| CCCCCc1ccc(S(=O)(=O)Nc2cccc(-c3csc(NC(=O)CNCCN(C)C)n3)c2)cc1 [PB693, 2-((2-(dimethylamino)ethyl)amino)-N-(4-(3-((4-pentylphenyl)sulfonamido)phenyl)thiazol-2-yl)acetamide] |  |  |  |  | Induction of CHOP in comparison to control condition, A375 [3]: ++; Induction of CHOP in comparison to control condition, Kyse70 (CHOP in Kyse 70 cells): +; Induction of CHOP in comparison to control condition, SH10TC (CHOP in SH10TC cells): −; Induction of CHOP in comparison to control condition, Kato III (CHOP in KATO III cells): −; IC50 (A375 melanoma cells [1]): 1 µM |
| CN(C)c1cccc2c(S(=O)(=O)Nc3cccc(-c4csc(NC(=O)CNCCCN5CCOCC5)n4)c3)cccc12 [PB644, N-(4-(3-((5-(dimethylamino)naphthalene)-1-sulfonamido)phenyl)thiazol-2-yl)-2-((3-morpholinopropyl)amino)acetamide] |  | 83.3 ± 23.6% | 11.7 ± 1.2% | 8% |  |
| CC(=O)Nc1nc(-c2ccc(F)c(NS(=O)(=O)c3cccc4c(N(C)C)cccc34)c2)cs1 [PB651, N-(4-(3-((5-(dimethylamino)naphthalene)-1-sulfonamido)-4-fluorophenyl)thiazol-2-yl)acetamide] |  |  | 89.4 ± 5.6% | 25 ± 8.1% |  |
| CN(C)c1cccc2c(S(=O)(=O)Nc3cccc(-c4csc(NC(=O)CCCCCN5CCN(CCO)CC5)n4)c3)cccc12 [PB698, N-(4-(3-((5-(dimethylamino)naphthalene)-1-sulfonamido)phenyl)thiazol-2-yl)-6-(4-(2-hydroxyethyl)piperazin-1-yl)hexanamide] |  |  |  |  | IC50 (A375 melanoma cells [1]): 1.75 µM |
| CCOC(=O)CCCC(=O)Nc1nc(-c2cccc(NS(=O)(=O)c3cccc4c(N(C)C)cccc34)c2)cs1 [PB625, Ethyl 5-((4-(3-((5-(dimethylamino)naphthalene)-1-sulfonamido)phenyl)thiazol-2-yl)amino)-5-oxopentanoate] |  |  | 93 ± 3% | 36.5 ± 7.5% |  |
| Cc1nc(-c2cccc(NS(=O)(=O)c3cccc4c(N(C)C)cccc34)c2)cs1 [PB635, 5-(dimethylamino)-N-(3-(2-methylthiazol-4-yl)phenyl)naphthalene-1-sulfonamide] |  |  | 47 ± 13.5% | 46.9 ± 4.4% |  |
| CCCCCc1ccc(S(=O)(=O)Nc2cccc(-c3csc(N4CCN(CCO)CC4)n3)c2)cc1 [PB708, N-(3-(2-(4-(2-hydroxyethyl)piperazin-1-yl)thiazol-4-yl)phenyl)-4-pentylbenzenesulfonamide] |  |  |  |  | IC50 (A375 melanoma cells [1]): 2.5 µM |
| COc1ccc(-c2csc(NC(C)=O)n2)cc1NS(=O)(=O)c1cccc2c(N(C)C)cccc12 [PB600, N-(4-(3-((5-(dimethylamino)naphthalene)-1-sulfonamido)-4-methoxyphenyl)thiazol-2-yl)acetamide] |  |  |  | 48.8 ± 4.3% |  |
| CN(C)c1cccc2c(S(=O)(=O)Nc3cccc(-c4csc(NC(=O)CCCCCNC(=O)OC(C)(C)C)n4)c3)cccc12 [PB624, Tert-butyl(6-((4-(3-((5-(dimethylamino)naphthalene)-1-sulfonamido)phenyl)thiazol-2-yl)amino)-6-oxohexyl)carbamate] |  |  | 87.8 ± 16.2% | 33.3 ± 5.5% |  |
| CN(C)c1cccc2c(S(=O)(=O)Nc3cccc(-c4csc(NC(=O)CN5CCOCC5)n4)c3)cccc12 [PB639, N-(4-(3-((5-(dimethylamino)naphthalene)-1-sulfonamido)phenyl)thiazol-2-yl)-2-morpholinoacetamide] |  | 100 ± 23.6% | 63.5 ± 16% | 24% |  |
| COCCOc1ccc(-c2csc(NC(C)=O)n2)cc1NS(=O)(=O)c1cccc2c(N(C)C)cccc12 [PB603, N-(4-(3-((5-(dimethylamino)naphthalene)-1-sulfonamido)-4-(2-methoxyethoxy)phenyl)thiazol-2-yl)acetamide] |  |  |  | 43.1 ± 8.7% |  |
| CN(C)c1cccc2c(S(=O)(=O)Nc3cccc(-c4csc(NC(=O)CCCNC(=O)OC(C)(C)C)n4)c3)cccc12 [PB631, Tert-butyl (4-((4-(3-((5-(dimethylamino)naphthalene)-1-sulfonamido)phenyl)thiazol-2-yl)amino)-4-oxobutyl)carbamate] |  |  | 31.3 ± 4.9% | 35.4 ± 14.2% |  |
| CN1CCN(CCCCCC(=O)Nc2nc(-c3cccc(NS(=O)(=O)c4cccc5c(N(C)C)cccc45)c3)cs2)CC1 [PB697, N-(4-(3-((5-(dimethylamino)naphthalene)-1-sulfonamido)phenyl)thiazol-2-yl)-6-(4-methylpiperazin-1-yl)hexanamide] |  |  |  |  | IC50 (A375 melanoma cells [1]): 2 µM |
| CC(=O)NCCCC(=O)Nc1nc(-c2cccc(NS(=O)(=O)c3cccc4c(N(C)C)cccc34)c2)cs1 [PB633] |  |  | 65.2 ± 9.9% | 43.8 ± 12.7% |  |
| CCOP(=O)(NCC(=O)Nc1nc(-c2cccc(NS(=O)(=O)c3cccc4c(N(C)C)cccc34)c2)cs1)OCC [PB649, Diethyl-(2-((4-(3-((5-(dimethylamino)naphthalene)-1-sulfonamido)phenyl)thiazol-2-yl)amino)-2-oxoethyl)phosphoramidate] |  |  | 77.7 ± 19.8% | 26.4 ± 4.5% |  |
| CN(C)c1cccc2c(S(=O)(=O)Nc3cccc(-c4csc(NC(=O)CN5CCC(C(N)=O)CC5)n4)c3)cccc12 [PB641, 1-(2-((4-(3-((5-(dimethylamino)naphthalene)-1-sulfonamido)phenyl)thiazol-2-yl)amino)-2-oxoethyl)piperidine-4-carboxamide] |  | 104 ± 5.9% | 105 ± 18.9% | 40% |  |

Second part, led by results:

| solubility (Aqueous solubility) | SMILES | viability at 1 µM (A375 melanoma cells [2]) | viability at 5 µM (A375 melanoma cells [2]) | viability at 10 µM (A375 melanoma cells [2]) | further results |
| --- | --- | --- | --- | --- | --- |
| 4.1 ± 0.4 µM (≈ 2.74 µg/mL) | COCCOc1ccc(-c2csc(NC(=O)CN3CCN(CCO)CC3)n2)cc1NS(=O)(=O)c1cccc2c(N(C)C)cccc12 [PB604, N-(4-(3-((5-(dimethylamino)naphthalene)-1-sulfonamido)-4-(2-methoxyethoxy)phenyl)thiazol-2-yl)-2-(4-(2-hydroxyethyl)piperazin-1-yl)acetamide] | 57.7 ± 16.5% | 19 ± 8.6% | 16.3 ± 9.8% |  |
| 3.4 ± 0.7 µM (≈ 2.12 µg/mL) | COc1ccc(-c2csc(NC(=O)CN3CCN(CCO)CC3)n2)cc1NS(=O)(=O)c1cccc2c(N(C)C)cccc12 [PB602, N-(4-(3-((5-(dimethylamino)naphthalene)-1-sulfonamido)-4-methoxyphenyl)thiazol-2-yl)-2-(4-(2-hydroxyethyl)piperazin-1-yl)acetamide] | 47.6 ± 2.4% | 1.7 ± 0.9% | 1 ± 1% |  |
| 3 ± 1 µM (≈ 1.58 µg/mL) | CN(C)c1cccc2c(S(=O)(=O)Nc3cccc(-c4csc(NC(=O)CNCCO)n4)c3)cccc12 [PB643, N-(4-(3-((5-(dimethylamino)naphthalene)-1-sulfonamido)phenyl)thiazol-2-yl)-2-((2-hydroxyethyl)amino)acetamide] | 108 ± 11.8% | 29.8 ± 6.5% | 0% |  |
| 2.8 ± 0.5 µM (≈ 1.56 µg/mL) | CN(C)c1cccc2c(S(=O)(=O)Nc3cccc(-c4csc(NC(=O)COCC(O)CO)n4)c3)cccc12 (centres unmarked) [PB605, 2-(2,3-dihydroxypropoxy)-N-(4-(3-((5-(dimethylamino)naphthalene)-1-sulfonamido)phenyl)thiazol-2-yl)acetamide] | 64.5 ± 4.3% | 29.4 ± 9.8% | 6.4 ± 0.6% |  |
| 5.2 ± 1.9 µM (≈ 3.19 µg/mL) | CN(C)c1cccc2c(S(=O)(=O)Nc3cc(-c4csc(NC(=O)CN5CCN(CCO)CC5)n4)ccc3F)cccc12 [PB601, N-(4-(3-((5-(dimethylamino)naphthalene)-1-sulfonamido)-4-fluorophenyl)thiazol-2-yl)-2-(4-(2-hydroxyethyl)piperazin-1-yl)acetamide] | 47.2 ± 6.7% | 22.5 ± 5.3% | 10.2 ± 2.7% |  |
| 88 ± 3 µM (≈ 51.9 µg/mL) | CN(C)c1cccc2c(S(=O)(=O)Nc3cccc(-c4csc(NC(=O)CNCCS(=O)(=O)O)n4)c3)cccc12 [PB654, 2-((2-((4-(3-((5-(dimethylamino)naphthalene)-1-sulfonamido)phenyl)thiazol-2-yl)amino)-2-oxoethyl)amino)ethane-1-sulfonic] |  | 89.4 ± 6.5% | 70 ± 13.8% |  |
| 4.2 ± 0.4 µM (≈ 2.5 µg/mL) | CN(C)c1cccc2c(S(=O)(=O)Nc3cccc(-c4csc(NC(=O)CN5CCN(CCO)CC5)n4)c3)cccc12 [PB640, N-(4-(3-((5-(dimethylamino)naphthalene)-1-sulfonamido)phenyl)thiazol-2-yl)-2-(4-(2-hydroxyethyl)piperazin-1-yl)acetamide] | 54.2 ± 5.9% | 67 ± 10.6% | 0% |  |
| 4 ± 2 µM (≈ 2.26 µg/mL) | CN1CCN(CC(=O)Nc2nc(-c3cccc(NS(=O)(=O)c4cccc5c(N(C)C)cccc45)c3)cs2)CC1 [PB638, N-(4-(3-((5-(dimethylamino)naphthalene)-1-sulfonamido)phenyl)thiazol-2-yl)-2-(4-methylpiperazin-1-yl)acetamide] | 37.5 ± 5.9% | 0.9 ± 1% | 0% |  |
